In PMC12526400, “Insight into Cytotoxic Potential of Erica spiculifolia Salisb (Balkan Heath)” (Plants, 2025):
Converted amounts (≈) assume the structure as drawn. “And” between values parts separate entries of the source, which are not always exact repeats. Equal values may be shown once. “Also recorded” adds a separate entry of the source. Read-outs that look alike come from different tables or passages of the source.

Assays:
[1] = test system: CCL-1 normal murine fibroblast cells; assay: MTT cytotoxicity, normal fibroblasts CCL-1; type: cell-based
Source text: (§1) To evaluate the anticancer potential of the studied E. spiculifolia extract, we employed a diverse panel of human cancer cell lines alongside a non-malignant control. The hematological models included LAMA-84, a chronic myeloid leukemia line harboring the Philadelphia chromosome [t(9;22)], and HL-60, an acute promyelocytic leukemia line characterized by the t(15;17) translocation. These suspension cultures allowed us to assess the effects on leukemic cells with distinct genetic drivers. In parallel, we investigated the antitumor activity of the plant extract against reproductive system-associated carcinomas, including breast carcinoma cells (MCF-7 and MDA-MB-231) and a cervical cancer cell line (CASKI). MCF-7 cells are hormone-responsive and widely used to model estrogen receptor-positive disease, whereas MDA-MB-231 cells are triple-negative, highly aggressive, and resistant to conventional anti-hormonal therapy. To further broaden the spectrum, we included CASKI, a cervical carcinoma line associated with HPV16 infection, thereby extending the analysis to virally driven epithelial cancer. In addition, normal murine fibroblast cells (CCL-1) were used as a non-malignant comparator, enabling an assessment of selectivity between normal and malignant cells. The presence and degree of tumor selectivity was assessed by calculating the correspondent selectivity indices (SI, selectivity index), defined as the ratio between the half-inhibitory concentrations of the extract in healthy and malignant cells (Table 2).
(§2) The antiproliferative activity of the extract, gallic, oleanolic, and protocatechuic acids was screened against human malignant cell lines of hematological (LAMA-84, HL-60) and epithelial (MDA-MB-231, MCF-7, CASKI) origin, as well as normal murine fibroblast cells (CCL-1). All cell lines were purchased from the German Collection of Microorganisms and Cell Cultures (DSMZ GmbH, Braunschweig, Germany). Cell cultures were cultivated in a growth medium RPMI 1640 supplemented with 10% fetal bovine serum (FBS), 5% L-glutamine, and incubated under standard conditions of 37 °C and 5% humidified CO2 atmosphere.
The cytotoxic potential of the E. spiculifolia extract was studied using a validated method for assessing cell viability known as the Mosmann MTT test. The assay is colorimetric and measures the activity of mitochondrial enzymes, reducing the yellow dye MTT (3-(4,5-dimethylthiazol-2-yl)-2,5-diphenyltetrazolium bromide) to violet formazan crystals. According to protocol, exponential-phased cells were harvested and seeded (100 μL/well) in 96-well plates at the appropriate density. Following a 24 h incubation, cells were treated with serial dilutions of the extract in the concentration range 1000–31.3 μg/mL. […] A further 4h incubation allowed the reduction of the yellow MTT reagent into purple formazan crystals in metabolically active viable cells, which were dissolved in an isopropyl alcohol solution containing 5% formic acid prior to absorbance measurement at 550 nm. […]
Collected absorbance values were blanked against MTT and isopropanol solution and normalized to the mean value of untreated control (100% cell viability). The obtained data were fitted to “concentration-effect” curves and analyzed by means of non-linear regression in the GraphPad Prism 8.0 software. […] Where significant differences were detected, post hoc comparisons were conducted using Tukey’s test.

MDA-MB-231 cells = assay: MTT cytotoxicity, MDA-MB-231; type: cell-based, human
Source text: as §1, §2
(§3) The cytotoxic potential of the E. spiculifolia extract was studied using a validated method for assessing cell viability known as the Mosmann MTT test. The assay is colorimetric and measures the activity of mitochondrial enzymes, reducing the yellow dye MTT (3-(4,5-dimethylthiazol-2-yl)-2,5-diphenyltetrazolium bromide) to violet formazan crystals. According to protocol, exponential-phased cells were harvested and seeded (100 μL/well) in 96-well plates at the appropriate density. Following a 24 h incubation, cells were treated with serial dilutions of the extract in the concentration range 1000–31.3 μg/mL. Following a 72 h exposure, filter sterilized MTT substrate solution (5 mg/mL in PBS) was added to each well of the culture plate. A further 4h incubation allowed the reduction of the yellow MTT reagent into purple formazan crystals in metabolically active viable cells, which were dissolved in an isopropyl alcohol solution containing 5% formic acid prior to absorbance measurement at 550 nm. Untreated cells (100% cell viability) were used as negative control. Cisplatin was used as positive control.
(§4) Collected absorbance values were blanked against MTT and isopropanol solution and normalized to the mean value of untreated control (100% cell viability). The obtained data were fitted to “concentration-effect” curves and analyzed by means of non-linear regression in the GraphPad Prism 8.0 software. Statistical analyses were performed using one-way analysis of variance (ANOVA) to assess differences among experimental groups. Where significant differences were detected, post hoc comparisons were conducted using Tukey’s test.

[2] = test system: cancer versus normal cell models; set-up: method as in PMID 36297448, doi:10.13005/bpj/3133, PMID 37108571; conditions: depending on the cancer versus normal cell models applied; cited from earlier work
HL-60 cells = assay: MTT cytotoxicity, HL-60; type: cell-based, human
Source text: as §1, §2, §3, §4

MCF-7 cells = assay: MTT cytotoxicity, MCF-7; type: cell-based, human
Source text: as §1, §2, §3, §4

LAMA-84 cells = assay: MTT cytotoxicity, LAMA-84; type: cell-based, human
Source text: as §1, §2, §3, §4

CASKI cells = assay: MTT cytotoxicity, CASKI; type: cell-based, human
Source text: as §1, §2, §3, §4

[3] = test system: triple-negative MDA-MB-231 breast cancer cells; set-up: method as in doi:10.3724/SP.J.1145.2010.00202; conditions: cited from earlier work
[4] = test system: hepatocellular carcinoma HuH7 cells; set-up: method as in PMID 20415421; conditions: cited from earlier work
SW480 = test system: SW480; set-up: method as in PMID 30928277; conditions: cited from earlier work
HCT116 = test system: HCT116; set-up: method as in PMID 30928277; conditions: cited from earlier work
[5] = Mus musculus, MTT, 72 h exposure, normal murine fibroblast cells, read-out: IC50 CCL-1 (converted)
[6] = Homo sapiens, MDA-MB-231, MTT, 72 h exposure, triple-negative breast carcinoma, read-out: IC50 MDA-MB-231 (converted)
[7] = Homo sapiens, HL-60, MTT, 72 h exposure, promyelocytic leukemia, read-out: IC50 HL-60 (converted)
[8] = Homo sapiens, MCF7, MTT, 72 h exposure, hormone-responsive breast carcinoma, read-out: IC50 MCF-7 (converted)
[9] = Homo sapiens, LAMA-84, MTT, 72 h exposure, bcr-abl+ chronic myeloid leukemia, read-out: IC50 LAMA-84 (converted)
[10] = Homo sapiens, LAMA-84, MTT, 72 h exposure, molar equivalent in brackets, read-out: IC50 LAMA-84 (converted)
[11] = Homo sapiens, Ca-Ski, MTT, 72 h exposure, cervical cancer, read-out: IC50 CASKI (converted)
[12] = 72 h, concentrations up to 500 μg/mL

N.N.[Cl][Pt][Cl] [cisplatin, reference compound]
IC50 ([1]; MTT, 72 h exposure, molar equivalent in brackets, read-out: IC50 CCL-1 (converted)): 18.7 µM | IC50 CCL-1 ([1]; MTT, 72 h exposure, normal murine fibroblast cells): 5.6 ± 0.7 µg/mL | IC50 (MDA-MB-231 cells; MTT, 72 h exposure, molar equivalent in brackets, read-out: IC50 MDA-MB-231 (converted)): 57.1 µM | IC50 MDA-MB-231 (MDA-MB-231 cells; MTT, 72 h exposure, triple-negative breast carcinoma): 17.2 ± 1.3 µg/mL | SI MDA-MB-231 (MDA-MB-231 cells; selectivity index = IC50 in CCL-1 / IC50 in MDA-MB-231): <1 | SI values typically reported [2]: 1–40 | IC50 (HL-60 cells; MTT, 72 h exposure, molar equivalent in brackets, read-out: IC50 HL-60 (converted)): 8.9 µM | IC50 HL-60 (HL-60 cells; MTT, 72 h exposure, promyelocytic leukemia): 2.7 ± 0.4 µg/mL | SI HL-60 (HL-60 cells; selectivity index = IC50 in CCL-1 / IC50 in HL-60): 2.1 | IC50 MCF-7 (MCF-7 cells; MTT, 72 h exposure, hormone-responsive breast carcinoma): 15.5 ± 1.7 µg/mL | IC50 (MCF-7 cells; MTT, 72 h exposure, molar equivalent in brackets, read-out: IC50 MCF-7 (converted)): 51.6 µM | SI MCF-7 (MCF-7 cells; selectivity index = IC50 in CCL-1 / IC50 in MCF-7): <1 | IC50 LAMA-84 (LAMA-84 cells; MTT, 72 h exposure, bcr-abl+ chronic myeloid leukemia): 11.4 ± 0.99 µg/mL | IC50 (LAMA-84 cells; MTT, 72 h exposure, molar equivalent in brackets, read-out: IC50 LAMA-84 (converted)): 37.8 µM | SI LAMA-84 (LAMA-84 cells; selectivity index = IC50 in CCL-1 / IC50 in LAMA-84): <1 | IC50 CASKI (CASKI cells; MTT, 72 h exposure, cervical cancer): 14.6 ± 1.9 µg/mL | IC50 (CASKI cells; MTT, 72 h exposure, molar equivalent in brackets, read-out: IC50 CASKI (converted)): 48.6 µM | SI CASKI (CASKI cells; selectivity index = IC50 in CCL-1 / IC50 in CASKI): <1

COc1cccc2c1C(=O)c1c(O)c3c(c(O)c1C2=O)C[C@@](O)(C(=O)CO)C[C@@H]3O[C@H]1C[C@H](N)[C@H](O)[C@H](C)O1 [doxorubicin]
SI values typically reported [2]: 1–40

O=C(O)c1cc(O)c(O)c(O)c1 [gallic acid]
IC50 [1, 5]: > 500 µg/mL | IC50 (MDA-MB-231 cells; [6]): > 500 µg/mL | IC50 (HL-60 cells; [7]): > 500 µg/mL | IC50 (MCF-7 cells; [8]): > 500 µg/mL | IC50 (LAMA-84 cells; [9]): 6.2 µg/mL | IC50 (LAMA-84 cells; [10]): 36.4 µM | cytotoxicity against CASKI (in words) (CASKI cells; 72 h exposure): inactive | IC50 (CASKI cells; [11]): > 500 µg/mL

CC1(C)CC[C@]2(C(=O)O)CC[C@]3(C)C(=CC[C@@H]4[C@@]5(C)CC[C@H](O)C(C)(C)[C@@H]5CC[C@]43C)[C@@H]2C1 [oleanolic acid]
IC50 MDA-MB-231 (previous studies) [3]: 38.8 µg/mL (≈ 85 µM) | IC50 [1, 5]: > 500 µg/mL | cytotoxicity against MDA-MB-231 (in words) (MDA-MB-231 cells; [12]): inactive; also recorded: did not exert cytotoxic effects | IC50 (MDA-MB-231 cells; [6]): > 500 µg/mL | IC50 (HL-60 cells; [7]): > 500 µg/mL | cytotoxicity against MCF-7 (in words) (MCF-7 cells; [12]): inactive; also recorded: did not exert cytotoxic effects | IC50 (MCF-7 cells; [8]): > 500 µg/mL | IC50 (LAMA-84 cells; [9]): 1.7 µg/mL | IC50 (LAMA-84 cells; [10]): 3.7 µM | cytotoxicity against CASKI (in words) (CASKI cells; 72 h exposure): inactive | IC50 (CASKI cells; [11]): > 500 µg/mL | IC50 [4]: 100 µM

O=C(O)c1ccc(O)c(O)c1 [protocatechuic acid]
IC50 ([1]; Mus musculus, Fibroblast, 72 h, read-out: IC50 CCL-1): > 500 µg/mL | IC50 (MDA-MB-231 cells; Homo sapiens, MDA-MB-231, 72 h, read-out: IC50 MDA-MB-231): 311 µg/mL | IC50 (HL-60 cells; Homo sapiens, HL-60, 72 h, read-out: IC50 HL-60): > 500 µg/mL | IC50 (MCF-7 cells; Homo sapiens, MCF7, 72 h, read-out: IC50 MCF-7): > 500 µg/mL | IC50 (LAMA-84 cells; Homo sapiens, LAMA-84, 72 h, read-out: IC50 LAMA-84): > 500 µg/mL and > 3.24 mM | IC50 (CASKI cells; Homo sapiens, Ca-Ski, 72 h, read-out: IC50 CASKI): > 500 µg/mL

C[C@H]1[C@H](C)CC[C@]2(C(=O)O)CC[C@]3(C)C(=CC[C@@H]4[C@@]5(C)CC[C@H](O)C(C)(C)[C@@H]5CC[C@]43C)[C@H]12 [ursolic acid]
IC50 (SW480): 10.2 µM | IC50 (HCT116): 13 µM | IC50 [4]: 75 µM
